Reference: patent US7741334B2, “Low dose therapy for treating viral infections” (priority 2004, dated 2010)

How the values were obtained:
[1] = Population PK analysis of plasma and urine data, study ACH443-011, 1×20 mg tablet PO; conditions: human, in vivo
Protocol: The PK model created included an individual compartmental PK analysis using ADAPT-II® and Population PK analysis using an iterative two-stage population modeling technique (IT2S®) of plasma and urine data from a study of healthy subjects, n=29, 1×20 mg tablet PO (ACH443-011). FIG. 1 illustrates the PK model of Elvucitabine according to a three compartment model characterized by two absorption peaks, each associated with a lag time and a first order absorption rate constant.
FIG. 2 illustrates an example of individual fit using a Population PK analysis (IT2S).

[2] = Therapeutic window from PK versus PD relationship; conditions: human
Text: Pharmacokinetics and pharmacodynamics modeling was used to explore potential dosing regimens for Elvucitabine. A pharmacokinetics (PK) model was developed to describe both the plasma concentration-time data and excreted urinary amounts from previously completed studies with Elvucitabine. With the PK model in hand and pharmacodynamics (PD) results of previously completed studies, the relationship of PK and PD from an efficacy and toxicity standpoint is obtained. From the results of the PK and PD studies, a therapeutic window of Elvucitabine is defined and simulated dosing regimens ranging from 5 mg BID to 100 mg Q1 week were explored using ADAPT II® Pharmacokinetic and Pharmacodynamic Systems Analysis Software. From the simulated dosing regimen results, ten dosing regimens were identified allowing maintenance therapy with Elvucitabine at levels effective against both HIV and HBV while avoiding bone toxicity.
From the foregoing results, a therapeutic window of Elvucitabine was identified. It has been determined that a 5 mg QD dose is effective for HBV and, therefore, a plasma AUCss/24 of 300 μg·h/L was identified as the efficacy threshold.

## Nc1nc(=O)n([C@H]2C=C[C@@H](CO)O2)cc1F [Elvucitabine, 4-amino-5-fluoro-1-((2R,5S)-5-(hydroxymethyl)-2,5-dihydrofuran-2-yl)pyrimidin-2(1H)-one]
[1]
  apparent volume of distribution (VSS): 1600 L
  fraction unbound: 0.396
[2]
  Cmax: > 40 ng/mL
  central compartment (plasma) Cmin at onset of toxicity: ≥ 23 µg/L
